In patent publication US20240381872A1, “SUBSTITUTED 2,3-DIHYDRO[1,3]THIAZOLO[4,5-B]PYRIDINES, SALTS THEREOF AND THEIR USE AS HERBICIDALLY ACTIVE SUBSTANCES” (BAYER AKTIENGESELLSCHAFT, priority 2021, published 2024):

Key:
Type in all cases: in vivo
Setaria viridis (SETVI) [1] = assay: Herbicidal post-emergence action, section B (Table B8); details: application rate 1280 g/ha; visual rating about 3 weeks after treatment vs untreated controls
Description: (§1) Seeds of mono- and dicotyledonous weed plants were placed in plastic pots in sandy loam soil (doubly sown with in each case one species of mono- or dicotyledonous weed plants per pot), covered with soil and cultivated in a greenhouse under controlled growth conditions. 2 to 3 weeks after sowing, the test plants were treated at the one-leaf stage. The compounds of the invention, formulated in the form of wettable powders (WP) or as emulsion concentrates (EC), were applied onto the green parts of the plants as aqueous suspension or emulsion with addition of 0.5% additive at a water application rate of 600 liters per hectare (converted). After the test plants had been kept in the greenhouse under optimum growth conditions for about 3 weeks, the activity of the preparations was rated visually in comparison to untreated controls. For example, 100% activity=the plants have died, 0% activity=like control plants.

Kochia scoparia (KCHSC) [2] = assay: Herbicidal pre-emergence action, section A (Table A4); details: visual grading after ca. 3 weeks vs untreated controls
In short: (§2)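 Visual scoring at approximately 3 weeks, relative to untreated pots, gave percent effect after compounds in WP or EC form were sprayed onto covering soil of sown seeds (sandy loam) in water with 0.5% additive at 600 l/ha, then kept in greenhouse.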

Lolium rigidum (LOLRI) = assay: Herbicidal pre-emergence action, section A (Table A5); details: application rate 320 g/ha; visual grading after ca. 3 weeks vs untreated controls
In short: as §2

[3] = system: Alopecurus myosuroides (ALOMY); assay: Herbicidal pre-emergence action, section A (Table A2); details: application rate 1280 g/ha; visual grading after ca. 3 weeks vs untreated controls
Source text: (§3) Seeds of mono- and dicotyledonous weed plants were sown in plastic pots (double sowings with one species of mono- and one species of dicotyledonous weed plants per pot), in sandy loam, and covered with soil. The compounds according to the invention, formulated in the form of wettable powders (WP) or as emulsifiable concentrates (EC), were applied to the surface of the covering soil as aqueous suspension or emulsion, with the addition of 0.5% of an additive, at an application rate of 600 l of water per hectare (converted). Following treatment, the pots were placed in a greenhouse and kept under optimum growth conditions for the test plants. The visual grading of the damage to the test plants was carried out after ca. 3 weeks in comparison to untreated controls (herbicidal effect in percent (%): 100% effect=plants have died off, 0% effect=as control plants).

Veronica persica (VERPE) [4] = assay: Herbicidal post-emergence action, section B (Table B10); details: application rate 320 g/ha; visual rating about 3 weeks after treatment vs untreated controls
In short: (§4)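 Percent effect, judged by eye against untreated controls (0% = like control, 100% = plants dead), was recorded about 3 weeks after a foliar spray. The spray, at 600 liters per hectare with 0.5% additive, was applied to one-leaf-stage plants grown in sandy loam.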

Poa annua (POAAN) [5] = assay: Herbicidal post-emergence action, section B (Table B7); details: application rate 1280 g/ha; visual rating about 3 weeks after treatment vs untreated controls
Description: as §1

[6] = system: Matricaria inodora (MATIN); assay: Herbicidal pre-emergence action, section A (Table A6); details: application rate 1280 g/ha; visual grading after ca. 3 weeks vs untreated controls
In short: as §2

Stellaria media (STEME) [7] = assay: Herbicidal pre-emergence action, section A (Table A9)
In short: as §2

Setaria viridis (SETVI) [8] = assay: Herbicidal pre-emergence action, section A (Table A8); details: application rate 1280 g/ha
In short: as §2

[9] = system: Amaranthus retroflexus (AMARE); assay: Herbicidal pre-emergence action, section A (Table A11)
In short: as §2

[10] = system: Abutilon theophrasti (ABUTH); assay: Herbicidal post-emergence action, section B (Table B1); details: application rate 1280 g/ha, rated visually after about 3 weeks
Description: as §1

[11] = system: Amaranthus retroflexus (AMARE); assay: Herbicidal post-emergence action, section B (Table B11); details: application rate 1280 g/ha; visual rating about 3 weeks after treatment vs untreated controls
In short: as §4

Veronica persica (VERPE) [12] = assay: Herbicidal pre-emergence action, section A (Table A10); details: application rate 1280 g/ha
In short: as §2

Poa annua (POAAN) [13] = assay: Herbicidal pre-emergence action, section A (Table A7); details: visual grading after ca. 3 weeks vs untreated controls
In short: as §2

Kochia scoparia (KCHSC) [14] = assay: Herbicidal post-emergence action, section B (Table B4); details: application rate 320 g/ha; visual rating about 3 weeks after treatment vs untreated controls
In short: as §4

[15] = system: Echinochloa crus-galli (ECHCG); assay: Herbicidal pre-emergence action, section A (Table A3); details: visual grading after ca. 3 weeks vs untreated controls
In short: as §2

[16] = system: Digitaria sanguinalis (DIGSA); assay: Herbicidal post-emergence action, section B (Table B12); details: application rate 1280 g/ha; visual rating about 3 weeks after treatment vs untreated controls
Description: as §1

Stellaria media (STEME) [17] = assay: Herbicidal post-emergence action, section B (Table B9); details: application rate 1280 g/ha; visual rating about 3 weeks after treatment vs untreated controls
In short: as §4

[18] = system: Digitaria sanguinalis (DIGSA); assay: Herbicidal pre-emergence action, section A (Table A12); details: application rate 1280 g/ha
In short: as §2

[19] = system: Abutilon theophrasti (ABUTH); assay: Herbicidal pre-emergence action, section A (Table A1); details: application rate 1280 g/ha; visual grading after ca. 3 weeks vs untreated controls
Source text: as §3

Glycine max (GLXMA) [20] = assay: Pre-emergence effects on crop plants, section D (Table D4); details: application rate 80 g/ha; visual grading after ca. 3 weeks
Source text: (§5) Seeds of mono- and dicotyledonous weed plants and crop plants were sown, in plastic or organic planting pots, in sandy loam and covered with soil. The compounds according to the invention, formulated in the form of wettable powders (WP) or as emulsifiable concentrates (EC), were applied to the surface of the covering soil as aqueous suspension or emulsion, with the addition of 0.5% of an additive, at an application rate of 600 l of water/ha (converted).
(§6) Following treatment, the pots were placed in a greenhouse and kept under optimum growth conditions for the test plants. The visual grading of the damage to the test plants was carried out after ca. 3 weeks in comparison to untreated controls (herbicidal effect in percent (%): 100% effect=plants have died off, 0% effect=as control plants).
(§7) Tables D1 to D5 below show the effects of various compounds of the general formula (I) according to Table 1 on various crop plants and an application rate corresponding to 320 g/ha or below obtained by the experimental procedure mentioned above in Biological Examples, Section C.

Zea mays (ZEAMX) = assay: Post-emergence effects on crop plants, section F (Table F1); details: Zea mays, 504 h, application rate 320 g/ha, read-out: post-emergence activity against ZEAMX in %
Source text: (§8) Seeds of mono- and dicotyledonous weed plants and crop plants were sown, in plastic or organic planting pots, in sandy loam, covered with soil and grown in a greenhouse under controlled growth conditions. 2 to 3 weeks after sowing, the test plants were sprayed in the single-leaf stage. The compounds according to the invention, formulated in form of wettable powders (WP) or as emulsifiable concentrates (EC), were sprayed onto the green plant parts as aqueous suspension or emulsion, with the addition of 0.5% of an additive, at an application rate of 600 l of water/ha (converted). The test plants were placed in the greenhouse for ca. 3 weeks under optimum growth conditions, and then the effect of the preparations was assessed visually in comparison with untreated controls (herbicidal effect in percent (%): 100% effect=plants have died off, 0% effect=as control plants). Tables F1 to F4 below show the effects of selected compounds of the general formula (I) according to Table 1 on various crop plants and an application rate corresponding to 320 g/ha or below obtained by the experimental procedure mentioned above.

[21] = system: Amaranthus retroflexus (AMARE); assay: Herbicidal pre-emergence action, section C (Table C11); details: Amaranthus retroflexus, pre-emergence, 504 h; application rate 320 g/ha; visual grading after ca. 3 weeks; read-out: pre-emergence activity against AMARE in %
Source text: Seeds of mono- and dicotyledonous weed plants and crop plants were sown, in plastic or organic planting pots, in sandy loam and covered with soil. The compounds according to the invention, formulated in the form of wettable powders (WP) or as emulsifiable concentrates (EC), were applied to the surface of the covering soil as aqueous suspension or emulsion, with the addition of 0.5% of an additive, at an application rate of 600 l of water/ha (converted). Following treatment, the pots were placed in a greenhouse and kept under optimum growth conditions for the test plants. The visual grading of the damage to the test plants was carried out after ca. 3 weeks in comparison to untreated controls (herbicidal effect in percent (%): 100% effect=plants have died off, 0% effect=as control plants).

Glycine max (GLXMA) [22] = assay: Post-emergence effects on crop plants, section F (Table F4); details: Glycine max, 504 h, application rate 80 g/ha, read-out: post-emergence activity against GLXMA in %
Source text: as §8

[23] = system: Triticum aestivum (TRZAS); assay: Post-emergence effects on crop plants, section F (Table F2); details: Triticum aestivum, 504 h, application rate 320 g/ha, read-out: post-emergence activity against TRZAS in %
Source text: as §8

[24] = system: Triticum aestivum (TRZAS); assay: Pre-emergence effects on crop plants, section D (Table D2); details: application rate 80 g/ha; visual grading after ca. 3 weeks
Source text: as §5, §6, §7

| Structure (SMILES) | pre-emergence activity against KCHSC in % (Kochia scoparia (KCHSC) [2]; application rate 1280 g/ha) [%] | post-emergence activity against POAAN in % (Poa annua (POAAN) [5]) [%] | pre-emergence activity against MATIN in % [6] [%] | pre-emergence activity against STEME in % (Stellaria media (STEME) [7]; application rate 320 g/ha) [%] | pre-emergence activity against SETVI in % (Setaria viridis (SETVI) [8]) [%] | post-emergence activity against ABUTH in % [10] [%] | post-emergence activity against AMARE in % [11] [%] | post-emergence activity against KCHSC in % (Kochia scoparia (KCHSC) [14]) [%] | post-emergence activity against DIGSA in % [16] [%] | post-emergence activity against STEME in % (Stellaria media (STEME) [17]) [%] | pre-emergence activity against DIGSA in % [18] [%] | pre-emergence activity against AMARE in % ([9]; application rate 1280 g/ha) [%] | further results |
| --- | --- | --- | --- | --- | --- | --- | --- | --- | --- | --- | --- | --- | --- |
| Cc1ccccc1-c1nc2c(cc1Br)SCN2B1NB(N)N1 [Example I-056] | 100 | 90 | 90 | 90 | 100 | 90 | 90 | 90 | 90 | 90 | 100 |  | post-emergence activity against SETVI in % (Setaria viridis (SETVI) [1]): 90%; pre-emergence activity against LOLRI in % (Lolium rigidum (LOLRI)): 100%; pre-emergence activity against ALOMY in % [3]: 90%; post-emergence activity against VERPE in % (Veronica persica (VERPE) [4]): 90%; pre-emergence activity against AMARE in % ([9]; application rate 320 g/ha): 90%; pre-emergence activity against VERPE in % (Veronica persica (VERPE) [12]): 90%; pre-emergence activity against POAAN in % (Poa annua (POAAN) [13]; application rate 1280 g/ha): 100%; pre-emergence activity against ECHCG in % ([15]; application rate 1280 g/ha): 100% |
| CC(=O)N1CSc2cc(Br)c(-c3cccc(Cl)c3F)nc21 [Example I-115] | 90 | 90 |  |  |  |  |  |  | 90 |  | 100 | 90 | pre-emergence activity against STEME in % (Stellaria media (STEME) [7]; application rate 1280 g/ha): 90% |
| Cc1cc2c(nc1-c1cccc(C)c1C)N(C(=O)C1(C)CC(Cl)=NO1)CS2 (stereo not drawn) [Example I-138] |  | 90 | 90 | 90 | 100 | 90 | 100 | 90 |  | 90 | 90 | 90 | pre-emergence activity against KCHSC in % (Kochia scoparia (KCHSC) [2]; application rate 320 g/ha): 90%; pre-emergence activity against ABUTH in % [19]: 90%; pre-emergence activity against POAAN in % (Poa annua (POAAN) [13]; application rate 320 g/ha): 100%; pre-emergence activity against ECHCG in % ([15]; application rate 320 g/ha): 90% |
| Cc1cc2c(nc1-c1cccc(F)c1F)N(S(C)(=O)=O)CS2(=O)=O [Example I-151, 5-(2,3-difluorophenyl)-3-(methylsulfonyl)-6-methyl-2,3-dihydro[1,3]thiazolo[4,5-b]pyridine 1,1-dioxide] |  |  |  |  |  |  |  |  |  |  |  |  | pre-emergence activity against GLXMA in % (crop plant damage) (Glycine max (GLXMA) [20]): 0%; percent crop plant damage (phytotoxicity) on Zea mays, post-emergence at 320 g/ha (Zea mays (ZEAMX)): 0%; pest or weed control at 320 g/ha [21]: 100%; percent crop plant damage at 80 g/ha (Glycine max (GLXMA) [22]): 0%; percent crop plant damage (wheat, post-emergence) at 320 g/ha [23]: 0%; pre-emergence activity against TRZAS in % (crop plant damage) [24]: 0% |
